This note sets out measurements from US8367681B2, “Pyrazolopyrimidines and related heterocycles as kinase inhibitors” (Cylene Pharmaceuticals, Inc., priority 2009, dated 2013).

One assay has as its target T1, recombinant human CK2 (Homo sapiens, UniProt P68400).
T1 construct: purchased Upstate
As to the kind of experiment: CK2 assay, cell-free, 33P-ATP filter plate. It counts as biochemical. On the procedure: Modulatory activity of compounds described herein was assessed in vitro in cell-free CK2 assays by the following method.
Test compounds in aqueous solution were added at a volume of 10 microliters, to a reaction mixture comprising 10 microliters Assay Dilution Buffer (ADB; 20 mM MOPS, pH 7.2, 25 mM beta-glycerolphosphate, 5 mM EGTA, 1 mM sodium orthovanadate and 1 mM dithiothreitol), 10 microliters of substrate peptide (RRRDDDSDDD SEQ ID NO.: 4, dissolved in ADB at a concentration of 1 mM), 10 microliters of recombinant human CK2 (25 ng dissolved in ADB; Upstate). Reactions were initiated by the addition of 10 microliters of ATP Solution (90% 75 mM MgCl2, 75 micromolar ATP dissolved in ADB; 10% [γ-^33P]ATP (stock 1 mCi/100 μl; 3000 Ci/mmol (Perkin Elmer) and maintained for 10 minutes at 30 degrees C. The reactions were quenched with 100 microliters of 0.75% phosphoric acid, then transferred to and filtered through a phosphocellulose filter plate (Millipore). After washing each well 5 times with 0.75% phosphoric acid, the plate was dried under vacuum for 5 min and, following the addition of 15 ul of scintillation fluid to each well, the residual radioactivity was measured using a Wallac luminescence counter.

The target in a further assay is recombinant PIM-1 (Homo sapiens, UniProt P11309). As to the kind of experiment: PIM-1 kinase assay, 33P-ATP filter plate. The format is biochemical. The settings on record: recombinant PIM-1, 15 uM ATP; read-out: PIM1: IC50. On the procedure: The following procedure was used to assay the PIM-1 kinase activity of compounds of the invention. Other methods for assaying PIM-1 and other PIM kinases, as well as methods to assay for activity against the various kinases in FIG. 1, are known in the art.
Chain of recombinant PIM-1 (P11309 whole entry): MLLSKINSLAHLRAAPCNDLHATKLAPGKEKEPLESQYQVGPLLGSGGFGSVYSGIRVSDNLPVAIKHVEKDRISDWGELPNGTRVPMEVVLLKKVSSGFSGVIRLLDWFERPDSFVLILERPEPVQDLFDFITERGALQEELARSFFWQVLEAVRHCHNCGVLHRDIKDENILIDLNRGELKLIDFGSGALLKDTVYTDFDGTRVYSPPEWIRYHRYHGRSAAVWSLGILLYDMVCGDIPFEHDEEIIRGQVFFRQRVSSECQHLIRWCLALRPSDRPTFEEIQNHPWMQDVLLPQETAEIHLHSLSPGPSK
In a final reaction volume of 50 ul, recombinant PIM-1 (1 ng) was incubated with 12 mM MOPS pH 7.0, 0.4 mM EDTA, glycerol 1%, brij 35 0.002%, 2- mercaptoethanol 0.02%, BSA 0.2 mg/ml, 100 uM KKRNRTLTK SEQ ID NO.: 5, 10 mM MgAcetate, 15 uM ATP, [γ-^33P-ATP] (specific activity approx. […]), DMSO 4% and test inhibitor compound at the required concentration. The reaction was initiated by the addition of the Magnesium ATP mixture. After 40 min incubation at 23° C., the reactions were quenched by the addition of 100 ul 0.75% Phosphoric acid, and the labeled peptide collected by filtration through a phosphocellulose filter plate. The plate was washed 4 times with 0.075% phosphoric acid (100 ul per well) and then, after the addition of scintillation fluid (20 ul per well), the counts were measured by a scintillation counter.

Assay [1] has as its system MDA-MB231 human breast cancer cells. As to the kind of experiment: Alamar Blue (AB) cell proliferation assay, MDAMB231. The format is cell-based. To be noted: MDA-MB-231, 96 h, four days with compound. On the procedure:
(§1) A representative cell-proliferation assay protocol using Alamar Blue dye (stored at 4° C., use 20 ul per well) is described hereafter.
(§2) 96-well Plate Setup and Compound Treatment • a. Split and trypsinize cells. • b. Count cells using hemocytometer. • c. Plate 4,000-5,000 cells per well in 100 μl of medium and seed into a 96-well plate according to the following plate layout. Add cell culture medium only to wells B10 to B12. Wells B1 to B9 have cells but no compound added.
(§3) • d. Add 100 μl of 2× drug dilution to each well in a concentration shown in the plate layout above. At the same time, add 100 μl of media into the control wells (wells B10 to B12). Total volume is 200 μl/well. • e. Incubate four (4) days at 37° C., 5% CO2 in a humidified incubator. • f. Add 20 μl Alamar Blue reagent to each well. • g. Incubate for four (4) hours at 37° C., 5% CO2 in a humidified incubator. • h. Record fluorescence at an excitation wavelength of 544 nm and emission wavelength of 590 nm using a microplate reader.
(§4) In the assays, cells are cultured with a test compound for approximately four days, the dye is then added to the cells and fluorescence of […] dye is detected after approximately four hours. Different types of cells can be utilized in the assays (e.g., HCT-116 human colorectal carcinoma cells, PC-3 human prostatic cancer cells, MDA-MB231 human breast cancer cells, K-562 human chronic myelogenous leukemia (CML) cells, MiaPaca human pancreatic carcinoma cells, MV-4 human acute myeloid leukemia cells, and BxPC3 human pancreatic adenocarcinoma cells).

The subject of assay [2] is K-562 human chronic myelogenous leukemia (CML) cells. Description: Alamar Blue (AB) cell proliferation assay, K-562. To be noted: K562, 96 h, K-562 cells, four days with compound. It counts as cell-based. As to the method:
as §1, §2, §3, §4

For assay [3], the system named is PC-3 human prostatic cancer cells. Description: Alamar Blue (AB) cell proliferation assay, PC3. The format is cell-based. The settings on record: PC-3, 96 h, four days with compound. As to the method: as §1, §2, §3, §4
The subject of assay [4] is MiaPaca human pancreatic carcinoma cells. As to the kind of experiment: Alamar Blue (AB) cell proliferation assay, MiaPaCa. It counts as cell-based. To be noted: MIA PaCa-2, 96 h, four days with compound. As to the method:
as §1, §2, §3, §4

The subject of assay [5] is MV-4 human acute myeloid leukemia cells. Description: Alamar Blue (AB) cell proliferation assay, MV-4-11. The settings on record: MV4-11, 96 h, MV-4-11 cells, four days with compound. It counts as cell-based. As to the method:
as §1, §2, §3, §4

A further assay deals with P21_BxPC3. Description: P21_BxPC3 cellular assay. The settings on record: Homo sapiens, BXPC-3; BxPC3 cells. It counts as cell-based.
For another assay, the system named is P21_MDAMB231. As to the kind of experiment: P21_MDAMB231 cellular assay. The format is cell-based. The settings on record: Homo sapiens, MDA-MB-231; MDAMB231 cells.

SMILES strings stand for the structures. A value given as a limit tells only on which side of the number the result lay.

T1 sequence (P68400 whole entry): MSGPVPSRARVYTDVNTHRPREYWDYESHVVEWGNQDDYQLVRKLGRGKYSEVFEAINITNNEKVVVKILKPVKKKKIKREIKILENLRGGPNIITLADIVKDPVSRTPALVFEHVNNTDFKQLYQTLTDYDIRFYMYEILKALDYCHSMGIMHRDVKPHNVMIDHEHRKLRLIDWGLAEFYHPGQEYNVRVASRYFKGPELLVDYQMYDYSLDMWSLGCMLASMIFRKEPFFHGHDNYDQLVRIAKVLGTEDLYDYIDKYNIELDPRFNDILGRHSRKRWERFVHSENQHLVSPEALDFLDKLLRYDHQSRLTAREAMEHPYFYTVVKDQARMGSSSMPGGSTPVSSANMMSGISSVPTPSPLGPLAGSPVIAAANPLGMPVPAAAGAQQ
T1 sequence (P67870 whole entry partner): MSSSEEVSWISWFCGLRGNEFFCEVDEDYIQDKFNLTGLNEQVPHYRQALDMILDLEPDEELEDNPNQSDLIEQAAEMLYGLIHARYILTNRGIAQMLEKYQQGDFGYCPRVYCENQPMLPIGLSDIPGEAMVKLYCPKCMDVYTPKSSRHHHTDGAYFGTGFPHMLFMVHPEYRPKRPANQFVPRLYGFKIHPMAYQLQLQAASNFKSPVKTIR

On to `COC(=O)c1cccc(-c2ccn3ncc(/C=C4/SC(=S)NC4=O)c3n2)c1`, for which the IC50 on recombinant human CK2 is 13 nM; on recombinant PIM-1, 21 nM; in assay [1], 8660 nM; in assay [2] it was greater than 10000 nM; in assay [3], 3910 nM; in assay [4], greater than 10000 nM. Also, the IC50 in [5] stood at 11 nM.

Take `COC(=O)c1cccc(-c2ccn3ncc(/C=C4/SC(=O)NC4=O)c3n2)c1`: the IC50 at recombinant human CK2 is 80 nM; at recombinant PIM-1, 91 nM; in assay [1], greater than 10000 nM; in assay [2] it was 51 nM; in assay [3], greater than 30000 nM; in assay [4], greater than 10000 nM. Also, the IC50 in the assay with P21_BxPC3 was 5680 nM; with P21_MDAMB231 it was 3160 nM.

On to `O=C1NC(=O)/C(=C\c2cnn3ccc(-c4cccc(C(=O)O)c4)nc23)S1`, for which the IC50 at recombinant human CK2 was 9 nM; on recombinant PIM-1, 688 nM; in assay [1], greater than 10000 nM; in [2], greater than 10000 nM; in [3], greater than 30000 nM; in [4] it was greater than 10000 nM. Moreover, in [5], the IC50 is greater than 1000 nM.

As for `O=C1NC(=S)S/C1=C/c1cnn2ccc(Nc3cccc(Cl)c3)nc12`, the IC50 on recombinant human CK2 is 6 nM; at recombinant PIM-1 it was 18 nM; in assay [1] it was greater than 10000 nM; in assay [2] it was 153 nM; in assay [3], 842 nM; in assay [4] it was greater than 10000 nM. Also, the IC50 in assay [5] was greater than 30 nM; with P21_BxPC3, 2660 nM; in the assay on P21_MDAMB231 it was 300 nM.

In the case of `O=C1NC(=O)/C(=C\c2cnn3ccc(Nc4cccc(Cl)c4)nc23)N1`, the IC50 on recombinant human CK2 was determined as 9 nM; at recombinant PIM-1, 427 nM; in [1] it was 768 nM; in assay [2] it was 153 nM; in [3] it was 143 nM; in [4], 108 nM. The IC50 in [5] was greater than 30 nM; with P21_BxPC3 it was 540 nM; with P21_MDAMB231, 100 nM.

As for `O=C1NC(=O)/C(=C\c2cnn3ccc(Nc4cccc(Cl)c4)nc23)S1`, the IC50 at recombinant human CK2 worked out at 3 nM; on recombinant PIM-1, 52 nM; in assay [1], 110 nM; in assay [2] it was 132 nM; in assay [3], 3040 nM; in assay [4], 285 nM. In addition, the IC50 in [5] stood at 271 nM; in the assay with P21_BxPC3 it was 450 nM; in the assay with P21_MDAMB231, 680 nM.

As for `Cc1nccn1-c1cccc(Nc2ccn3ncc(/C=C4\SC(=O)NC4=O)c3n2)c1`, the IC50 at recombinant human CK2 is 22 nM; on recombinant PIM-1 it was 4 nM; in assay [1] it was greater than 10000 nM; in assay [2], greater than 10000 nM; in assay [4], greater than 10000 nM; in assay [5] it was 5380 nM.

Regarding `CC(C)(C)c1cccc(Nc2ccn3ncc(/C=C4/NC(=O)NC4=O)c3n2)c1`, the values for the IC50 on recombinant human CK2 and on recombinant PIM-1 were 210 nM and 890 nM, respectively.

Take `CC(C)(C)c1cccc(Nc2ccn3ncc(/C=C4/SC(=O)NC4=O)c3n2)c1`: the IC50 at recombinant human CK2 was 79 nM; on recombinant PIM-1, 107 nM.

For `Nc1ccn2ncc(/C=C3\NC(=O)NC3=O)c2n1`, the figures for the half-inhibitory concentration (IC50) on recombinant human CK2 and on recombinant PIM-1 were greater than 5000 nM and 158 nM, respectively.

On to `CN1CCN(c2ccc(Nc3ccn4ncc(/C=C5/NC(=O)NC5=O)c4n3)cc2)CC1`, for which the IC50 at recombinant human CK2 is 57 nM; at recombinant PIM-1, 537 nM.

As to `O=C1NC(=O)/C(=C\c2cnn3ccc(Nc4cccc(Cn5ccnc5)c4)nc23)N1`, the IC50 on recombinant human CK2 worked out at 120 nM; at recombinant PIM-1, 61 nM.

For `O=C1NC(=O)/C(=C/c2cnn3ccc(N4CCCCC4)nc23)N1`, the IC50 on recombinant human CK2 is 145 nM; at recombinant PIM-1, 431 nM.

For the compound `CN1C(=O)NC(=O)/C1=C/c1cnn2ccc(Nc3cccc(Cl)c3)nc12`, the figures for the IC50 at recombinant human CK2 and at recombinant PIM-1 were 375 nM and 239 nM, respectively.

In the case of `CCN(CC)Cc1cccc(Nc2ccn3ncc(/C=C4\NC(=O)NC4=O)c3n2)c1`, the IC50 stood at 460 nM at recombinant human CK2 and 373 nM on recombinant PIM-1.

Consider `CN1CCCN(c2ccn3ncc(/C=C4\NC(=O)NC4=O)c3n2)CC1`, for which the IC50 stood at 1970 nM at recombinant human CK2 and 3530 nM at recombinant PIM-1.

With `CN1CCCN(c2ccn3ncc(/C=C4\SC(=O)NC4=O)c3n2)CC1`, the IC50 stood at 130 nM at recombinant human CK2 and 126 nM on recombinant PIM-1.

For `CN1CCN(c2cccc(Nc3ccn4ncc(/C=C5\NC(=O)NC5=O)c4n3)c2)CC1`, the IC50 on recombinant human CK2 came out at 247 nM; at recombinant PIM-1 it was 518 nM.

Consider `O=C1NC(=O)/C(=C/c2cnn3ccc(Nc4cccc(OCCN5CCOCC5)c4)nc23)N1`, for which the IC50 came to 303 nM at recombinant human CK2 and 1250 nM at recombinant PIM-1.

Take `CC(C)Oc1cccc(Nc2ccn3ncc(/C=C4\NC(=O)NC4=O)c3n2)c1`: the results for the IC50 (at recombinant human CK2; on recombinant PIM-1; in assay [3]) were 23 nM, 1040 nM and 9710 nM, respectively.

In the case of `CC(C)CNc1ccn2ncc(/C=C3\NC(=O)NC3=O)c2n1`, the figures for the IC50 (on recombinant human CK2; on recombinant PIM-1; in assay [3]) were 35 nM, 346 nM and 6550 nM, respectively.

Consider `CN(C)CCOc1ccc(Nc2ccn3ncc(/C=C4\NC(=O)NC4=O)c3n2)cc1`, for which the IC50 at recombinant human CK2 was found to be 58 nM; on recombinant PIM-1 it was 431 nM.

Turning to `CC(C)Nc1ccn2ncc(/C=C3\NC(=O)NC3=O)c2n1`, the IC50 worked out at 574 nM on recombinant human CK2 and 1570 nM at recombinant PIM-1.

For `O=C1NC(=O)/C(=C/c2cnn3ccc(NCCF)nc23)N1`, the values for the IC50 on recombinant human CK2 and at recombinant PIM-1 were 2150 nM and 2380 nM, respectively.

In the case of `O=C1NC(=S)S/C1=C\c1cnn2ccc(-c3ccccc3F)nc12`, the results for the IC50 (at recombinant human CK2; on recombinant PIM-1; in assay [3]) were 15 nM, 25 nM and greater than 10000 nM, respectively.

As to `O=C1NC(=O)/C(=C/c2cnn3ccc(-c4ccccc4F)nc23)S1`, the IC50 was 41 nM at recombinant human CK2, 240 nM on recombinant PIM-1 and greater than 10000 nM in assay [3].

With `O=C1NC(=O)/C(=C/c2cnn3ccc(-c4ccccc4F)nc23)N1`, the IC50 is 179 nM on recombinant human CK2 and 3010 nM on recombinant PIM-1.

Consider `O=C1NC(=O)/C(=C/c2cnn3ccc(Nc4ccc(Cl)cc4)nc23)N1`, for which the IC50 was 20 nM on recombinant human CK2 and 194 nM on recombinant PIM-1.

On to `O=C1NC(=O)/C(=C/c2cnn3ccc(Nc4ccc(Cl)cc4)nc23)S1`, for which, at recombinant human CK2, the IC50 worked out at 7 nM.
